What was measured:
[1] = test system: kit2-kit* (DNA, G4) CGGGCGGGCGCGAGGGAGGGGAGGCGAGGAGGGGCGTGGCCGGC; test: CD titration; settings: K+ (150 mM in Methods, 100 mM in Figure S3 legend); 10 mM Tris, pH 7.5, 25 °C; 4 µM DNA
[2] = test system: kit*8AP (DNA, G4, 2-aminopurine at 8 (replaces A)) GGCGAGGAGGGGCGTGGCCGGC; test: 2-aminopurine fluorescence titration; settings: 150 mM K+; 10 mM Tris, pH 7.5, 25 °C; apparent; 0.5 µM DNA, single-site fit
[3] = test system: kit* (DNA, G4) GGCGAGGAGGGGCGTGGCCGGC; test: SPR steady state; settings: 150 mM K+; 10 mM Tris, pH 7.5, 25 °C; apparent; one-site plus non-specific fit; DMSO < 1%
[4] = test system: kit*5AP (DNA, G4, 2-aminopurine at 5 (replaces A)) GGCGAGGAGGGGCGTGGCCGGC; test: 2-aminopurine fluorescence titration; settings: 150 mM K+; 10 mM Tris, pH 7.5, 25 °C; apparent; 0.5 µM DNA, single-site fit
[5] = test system: kit* (DNA, G4) GGCGAGGAGGGGCGTGGCCGGC; test: CD titration; settings: K+ (150 mM in Methods, 100 mM in Figure S3 legend); 10 mM Tris, pH 7.5, 25 °C; 4 µM DNA

Row | binding [1] | Kd [2] | Kd [3] | Kd [4] | binding [5] | Compound
1 | yes | 1780 ± 150 nM | 6710 ± 1260 nM | 2240 ± 170 nM | yes | C(=NNC1=NCCN1)c1cccc2cc3cccc(C=NNC4=NCCN4)c3cc12
2 | yes | 310 ± 20 nM | 510 ± 90 nM | 320 ± 20 nM | yes | NCCCC[C@H](N)C(=O)NCCC(=O)Nc1cccc2c1C(=O)c1cccc(NC(=O)CCNC(=O)[C@@H](N)CCCCN)c1C2=O
